# Test results: patent publication US20060063794A1, “Method of attenuating graft rejection” (Fujisawa Pharmaceutical Co., Ltd., priority 2004, published 2006)
# Entries after “also recorded” stand apart in the source; their conditions may differ.
# Key:
# [1] = system: human kidney transplant recipients; experiment: Same trial: safety, adverse events, laboratory values, withdrawals; format: in vivo; settings: for Median serum creatine value: at study end; for Mean hemoglobin level: day 84
# Method: FK778 and placebo were administered in a double-blind manner. […] Patients in arm 2 received one dose of 600 mg/day and continued on 75 mg/day. Subsequent doses were adjusted to maintain trough levels of FK778 in the range of 100-200 μg/mL (arm 1) and 10-100 μg/mL (arm 2). Trough levels of FK778 were centrally determined. Doses of FK778 were adjusted according to the recommendations of an independent panel. Treatment of adults of both genders was studied in a multi-center, randomized, double-blind trial. Three groups were studied. Group H was treated with high dose FK778/tarcolimus/steroids; Group L was treated with low dose FK778/tarcolimus/steroids; and Group P was treated with placebo/Tacrolimus/steroids. Tacrolimus was given as an initial dose of 0.2 mg/kg per os divided into two equal doses, one pre-operatively and one post-operatively. Subsequent doses were adjusted to reach target Tacrolimus whole blood trough concentrations of 10-20 ng/mL on Days 0-30, and 5-15 ng/mL on Days 31-84. Methylprednisolone was perioperatively administered at 1000 mg i.v. or less and 125 mg on Day 1. A prednisolone equivalent was given orally at 20 mg from Day 2-14, at 15 mg on Day 15-28, at 10 mg from Day 29-42 and 5 mg from Day 43-84. Oral tablets of FK778/placebo were administered in a double-blind manner. […] This was the maximum permitted daily dose of FK778. […] Dose adaptations were to be performed from day 7 onwards. Subsequent doses were adjusted to maintain plasma trough levels of FK778 in the target ranges of 100-200 μg/mL (H) and 10-100 μg/mL (L). The primary efficacy endpoint was the incidence of AR proven by local biopsy over the first 12 weeks. […] On a continuous basis safety was assessed by patient and graft survival, adverse event monitoring, routine laboratory evaluations and vital signs. Treatment emergent adverse events were coded according to the MedDRA dictionary (version 5.0). All analyses were based on the full analysis set which included all patients randomised who received at least one dose of FK778/placebo (intent-to-treat principle). Decreasing Kaplan-Meier plots were provided. Pair-wise comparisons of the incidence of adverse events between the treatment groups were made using Fisher's exact test.
# [2] = system: chronic kidney allograft rejection; settings: cited from earlier work
# [3] = system: B-cell proliferation; T cells; settings: in vitro, FK778 in combination with Tacrolimus (FK506); cited from earlier work
# [4] = system: renal allograft; settings: rats, concomitant 14-day regimen FK778 (10/mg/kg/day) and Tacrolimus (1 mg/k/day); cited from earlier work
compound,measurement,setting,value
"C#CCC/C(O)=C(\C#N)C(=O)Nc1ccc(C(F)(F)F)cc1 [FK778, (2Z)-2-cyano-3-hydroxy-N-[4-(trifluromethyl)phenyl]-2-hepten-6-ynamide]",Overall assessment of the trial,"[1]; FK778 with Tacrolimus and corticosteroids, renal transplantation","pharmacologically active, well tolerated, and safe; also recorded: pharmacologically active, well tolerated and safe"
same,"Anemias NEC, number of patients",[1]; High level FK778 (group H),21
same,"Angina pectoris, number of patients",[1]; High level FK778 (group H),1
same,Hyperkalemia (%),[1]; High level FK778 (group H),(4.1) %
same,"Hyperkalemia, number of patients",[1]; High level FK778 (group H),2
same,Hypokalemia (%),[1]; High level FK778 (group H),(12.2) %
same,"Hypokalemia, number of patients",[1]; High level FK778 (group H),6
same,Ischemic coronary artery disorders (%),[1]; High level FK778 (group H),(4.1) %
same,"Ischemic coronary artery disorders, number of patients",[1]; High level FK778 (group H),2
same,"Myocard. Ischemia, number of patients",[1]; High level FK778 (group H),1
same,"O. NOS, number of patients",[1]; High level FK778 (group H),1
same,"O. hemorrhagic, number of patients",[1]; High level FK778 (group H),1
same,Oesophagilis (%),[1]; High level FK778 (group H),(8.2) %
same,"Oesophagilis, number of patients",[1]; High level FK778 (group H),4
same,"Reflux O., number of patients",[1]; High level FK778 (group H),2
same,Withdrawn: Adverse event (%),[1]; High level FK778 (group H),(18.4) %
same,"Withdrawn: Adverse event, number of patients",[1]; High level FK778 (group H),9
same,Withdrawn: Death (%),[1]; High level FK778 (group H),(2.0) %
same,"Withdrawn: Death, number of patients",[1]; High level FK778 (group H),1
same,Withdrawn: Graft failure (%),[1]; High level FK778 (group H),(6.1) %
same,"Withdrawn: Graft failure, number of patients",[1]; High level FK778 (group H),3
same,Withdrawn from treatment (%),[1]; High level FK778 (group H) + Tacrolimus/steroids,(28.6) %
same,"Withdrawn from treatment, number of patients","[1]; High level FK778 (group H) + Tacrolimus/steroids, N=49",14
same,"Anemias NEC, number of patients",[1]; Low level FK778 (group L),17
same,"Angina pectoris, number of patients",[1]; Low level FK778 (group L),5
same,Hyperkalemia (%),[1]; Low level FK778 (group L),(11.1) %
same,"Hyperkalemia, number of patients",[1]; Low level FK778 (group L),6
same,Hypokalemia (%),[1]; Low level FK778 (group L),(0.0) %
same,"Hypokalemia, number of patients",[1]; Low level FK778 (group L),0
same,Ischemic coronary artery disorders (%),[1]; Low level FK778 (group L),(13.0) %
same,"Ischemic coronary artery disorders, number of patients",[1]; Low level FK778 (group L),7
same,"Myocard. Infarction, number of patients",[1]; Low level FK778 (group L),1
same,"Myocard. Ischemia, number of patients",[1]; Low level FK778 (group L),1
same,Oesophagilis (%),[1]; Low level FK778 (group L),(0.0) %
same,"Oesophagilis, number of patients",[1]; Low level FK778 (group L),0
same,Withdrawn: Adverse event (%),[1]; Low level FK778 (group L),(13.0) %
same,"Withdrawn: Adverse event, number of patients",[1]; Low level FK778 (group L),7
same,Withdrawn: Graft failure (%),[1]; Low level FK778 (group L),(5.6) %
same,"Withdrawn: Graft failure, number of patients",[1]; Low level FK778 (group L),3
same,Withdrawn from treatment (%),[1]; Low level FK778 (group L) + Tacrolimus/steroids,(25.9) %
same,"Withdrawn from treatment, number of patients","[1]; Low level FK778 (group L) + Tacrolimus/steroids, N=54",14
same,"Withdrawn: Death, number of patients","[1]; Low level FK778 (group L), one patient died the day after withdrawal",0
same,Reversibility of anemia,[1]; after cessation of FK778 treatment,reversible after cessation of FK778 treatment; also recorded: quickly reversed after cessation of FK778 treatment
same,Systolic and diastolic blood pressure values,[1]; both FK778 arms,trend towards lower
same,"Mean total cholesterol and mean LDL-cholesterol levels, lower compared to placebo group","[1]; both FK778 groups, during the treatment phase",~20%
same,Bilirubin levels,[1]; group H,slightly elevated
same,Median serum creatine value,[1]; group H,138 µmol/L
same,Mean hemoglobin level,[1]; group H,102.6 g/L
same,Patients who died during the study,"[1]; group H, high level FK778",one
same,Median serum creatine value,[1]; group L,149 µmol/L
same,Mean hemoglobin level,[1]; group L,119 g/L
same,Patients who died during the study,"[1]; group L, low level FK778",one
same,Liver enzyme values,[1]; throughout the study,no changes
same,Optimal dose,"[2]; rat, given for ten days following transplantation",10 mg/kg/day
same,Effect on chronic kidney allograft rejection,[2]; rats,prevented chronic kidney allograft rejection; also recorded: reduced functional and histologic chronic kidney allograft rejection
same,Effect in T cells,[3],antagonistic tendency
same,Effect on B-cell proliferation,[3],synergistic inhibition of B-cell proliferation
same,Effect on renal allograft survival,[4],synergistically prolonged renal allograft survival
